Results taken from US20180346518A1, “LYSOBACTIN FOR USE IN THE TREATMENT OF BOVINE MASTITIS” (BAYER ANIMAL HEALTH GMBH, priority 2015, published 2018).
Numbered stars: 1 amine (or outer) side, 2 acyl side, 3 side chain; on linkers, the order of the positions; unused ones are H or OH. Bridge positions count the residues as written; N and C are the ends. Square brackets hold non-standard residues; d marks the D form. Peptide text beside a SMILES is read from it. Phe(3R-OH) = O=C([C@@H](N[*:1])[C@H](O[*:3])c1ccccc1)[*:2]; Asn(3S-OH) = NC(=O)[C@@H](O)[C@H](N)C(=O)O; Leu(3R-OH) = CC(C)[C@@H](O)[C@H](N)C(=O)O; aThr = C[C@H](O)[C@H](N)C(=O)O

What was measured:
[1] = tested on: Staphylococcus aureus ATCC 29740; assay: in vitro kill kinetics in milk; type: cell-based; settings: at 24 h; full-fat milk; 4, 8, 16, 32 and 64 μg/mL
Procedure: (§1) In order to assess the ability of lysobactin to kill bacteria in milk, flasks containing different concentrations of lysobactin in store-bought full-fat milk were inoculated with 1-2×10^6 colony forming units/ml of a representative strain of either Staphylococcus aureus or Streptococcus uberis. The flasks were incubated for 24-48 hours in a shaking water bath at 35+/−2° C., and viable bacterial counts in each flask were determined at several time-points by diluting and plating samples on agar plates. A reduction of the number of viable bacteria in the initial inoculum by at least 99.9% is defined as bactericidal activity.
(§2) The kill kinetics of lysobactin against Staphylococcus aureus ATCC 29740 and Streptococcus uberis ATCC 27958 in milk were determined for concentrations of lysobactin of 4, 8, 16, 32 and 64 μg/mL. Results are depicted in FIG. 1 (CFU: colony forming units). A cidality at 24 h and 48 h, respectively, can be postulated for S. aureus and S. uberis.

[2] = tested on: Streptococcus uberis ATCC 27958; assay: in vitro kill kinetics in milk; type: cell-based; settings: at 48 h; full-fat milk; 4, 8, 16, 32 and 64 μg/mL
Procedure: as §1, §2

S. aureus = assay: resistance development during serial passaging; type: cell-based, Staphylococcus aureus; settings: constant sub-MIC exposure, 33 days
Procedure: The appearance of MIC changes during constant exposure of bacteria to sub-MIC concentrations of lysobactin was assessed by serial passaging experiments. On the first day the MICs of S. aureus and S. uberis were assessed by microbroth dilution MIC methodology as described by the Clinical and Laboratory Standards Institute (CLSI). Each day for the following 33 consecutive days, bacteria from the well containing the highest concentrations allowing full growth were collected and used to inoculate new 96-well plates and to assess the MIC during constant exposure to lysobactin. The MIC obtained on each day was plotted over time. Rifampicin, which is known to result in quick changes of the MIC, was used as positive control.

[3] = tested on: Staphylococcus aureus ATCC 29740; assay: spontaneous resistance development; type: cell-based; settings: for obtained colonies: plated CFU 3.52 × 10^9
Procedure: (§3) The frequency of spontaneous resistance development was assessed by plating at least 1×10^9 colony forming units of the respective bacterial strain on agar plates containing lysobactin at either 4× or 8× the MIC and incubating the plates at 35+/−2° C. […] The resulting number is defined as the spontaneous resistance frequency, and is an indication for the likelihood of resistant isolates to appear during an infection.

[4] = tested on: Streptococcus uberis ATCC 27958; assay: spontaneous resistance development; type: cell-based; settings: for obtained colonies: plated CFU 2.4 × 10^10
Procedure: as §3

Staphylococcus aureus [5] = assay: Staphylococcus aureus acute mouse mastitis model; type: in vivo, lactating CD-1 mice
Procedure: The efficacy of lysobactin (formulated in a hydrogel at pH 4.7) was tested in a Staphylococcus aureus acute mouse mastitis model established at the University of Sherbrooke, Canada (Broui-llette et al, Vet. Microbiol. (2004) 4:253-262), that is hereby incorporated by reference. Both the abdominal mammary glands (L4 and R4) of lactating CD-1 mice were intramammarily infected with 100 CFU (colony forming units) of S. aureus. The mice were treated intramammarily with lysobactin four hours after infection. Each treatment group contained at least 3 mice (6 quarters) 14 hours later (18 hours after inoculation) mice were sacrificed, mammary glands were harvested and the CFU content evaluated by plating 10-fold serial dilutions of mammary gland homogenates. The CFU content was expressed as log10 count. The detection limit was 200 CFU/g of gland. Glands with less than 200 CFU/g were regarded as cleared.

Staphylococcus aureus [6] = assay: dairy cow udder infection model with S. aureus; type: in vivo, lactating dairy cows
Procedure: Fifteen healthy lactating dairy cows were experimentally infected with the mastitis pathogen Staphylococcus aureus on all four udder quarters. […] Treatments were randomly assigned to 42 udder quarters in total, either 50 mg lysobactin per quarter (in 11 quarters), or 150 mg Lysobactin (in 11 quarters), or Ubrolexin® (in 9 quarters), or saline solution (in 11 quarters). Only udder quarters that were bacteriologically positive for the challenge organism immediately prior to treatment (n=42) were eligible for assessment of microbiological and clinical cure. The diseased quarters were treated with these intramammary formulations two times with an interval of 24 hours in between. Udders were clinically examined and milk samples were taken before treatment and several times after that until three weeks after the second administration. Milk was inspected visually for deviation in its consistency and samples were evaluated for presence of the challenge organism and for somatic cell count to confirm the diagnosis mastitis. Diseased udder quarters were considered microbiologically cured when Staphylococcus aureus found in milk samples shortly before treatment could not be isolated from any milk sample taken within the time period between the third and the twenty-first day after the second treatment. Clinical cure was achieved when the local symptoms of mastitis had completely disappeared, and recovery of somatic cell counts (SCC) as parameter of udder inflammation was attained when all counts remained below 500.000 cells per mL of milk in the period mentioned above.

[7] = 50 mg per quarter, Day 3 after second treatment
[8] = 50 mg per quarter, Day 21 after second treatment
[9] = 150 mg per quarter, Day 3 after second treatment
[10] = 150 mg per quarter, Day 21 after second treatment

With CC[C@H](C)[C@@H]1NC(=O)[C@@H](CCCNC(=N)N)NC(=O)[C@H](CC(C)C)NC(=O)[C@H]([C@H](O)C(C)C)NC(=O)[C@@H](NC(=O)[C@H](CC(C)C)NC(=O)[C@H](N)CC(C)C)[C@@H](c2ccccc2)OC(=O)[C@H](CO)NC(=O)[C@H]([C@H](O)C(N)=O)NC(=O)CNC(=O)[C@H]([C@H](C)O)NC1=O [lysobactin] (H-[dL]L[Phe(3R-OH)][Leu(3R-OH)]L[dR]I[aThr]G[Asn(3S-OH)]S; ester 3-C) the “kill kinetics, bactericidal activity (cidality)” value [1] was “cidality”, the “kill kinetics, bactericidal activity (cidality)” value [2] was “cidality” and the “MIC change during serial passaging” value (S. aureus) was “remain constant”. The frequency of resistance ([3]; 24 h, 2 μg/ml (4x MIC)) was <2.84 × 10^−10, the obtained colonies ([3]; 24 h, 2 μg/ml (4x MIC)) was 0 and the frequency of resistance ([3]; 24 h, 4 μg/ml (8x MIC)) was <2.84 × 10^−10. For the same molecule, the obtained colonies ([3]; 24 h, 4 μg/ml (8x MIC)) was 0, the frequency of resistance ([3]; 48 h, 2 μg/ml (4x MIC)) was <2.84 × 10^−10 and the obtained colonies ([3]; 48 h, 2 μg/ml (4x MIC)) was 0. The frequency of resistance ([3]; 48 h, 4 μg/ml (8x MIC)) was <2.84 × 10^−10, the obtained colonies ([3]; 48 h, 4 μg/ml (8x MIC)) was 0 and the frequency of resistance ([4]; 24 h, 2 μg/ml (4x MIC)) was <4.17 × 10^−11. For the same molecule, the obtained colonies ([4]; 24 h, 2 μg/ml (4x MIC)) was 0, the frequency of resistance ([4]; 24 h, 4 μg/ml (8x MIC)) was <4.17 × 10^−11 and the obtained colonies ([4]; 24 h, 4 μg/ml (8x MIC)) was 0. The frequency of resistance ([4]; 48 h, 2 μg/ml (4x MIC)) was <4.17 × 10^−11, the obtained colonies ([4]; 48 h, 2 μg/ml (4x MIC)) was 0 and the frequency of resistance ([4]; 48 h, 4 μg/ml (8x MIC)) was <4.17 × 10^−11. For the same molecule, the obtained colonies ([4]; 48 h, 4 μg/ml (8x MIC)) was 0, the “reduction of median CFU content of mammary glands” value (Staphylococcus aureus [5]; 50 μg intramammary, hydrogel pH 4.7, 4 h after infection, glands harvested 18 h after inoculation) was “ca. 4 log10” and the “clearance of infection from glands” value (Staphylococcus aureus [5]; 400 μg intramammary, hydrogel pH 4.7, cleared = less than 200 CFU/g of gland) was “eliminates the infection from all infected glands”. The microbiological cure rate (Staphylococcus aureus [6]; 50 mg per quarter, 2 treatments 24 h apart, Day 3 after second treatment) was 73%, the SCC recovery rate (Staphylococcus aureus [6]; [7]) was 36% and the “local clinical cure rate” value (Staphylococcus aureus [6]; [7]) was 45%. For the same molecule, the SCC recovery rate (Staphylococcus aureus [6]; [8]) was 45%, the “local clinical cure rate” value (Staphylococcus aureus [6]; [8]) was 73% and the microbiological cure rate (Staphylococcus aureus [6]; [8]) was 27%. The SCC recovery rate (Staphylococcus aureus [6]; [9]) was 36%, the “local clinical cure rate” value (Staphylococcus aureus [6]; [9]) was 37% and the microbiological cure rate (Staphylococcus aureus [6]; [9]) was 73%. For the same molecule, the SCC recovery rate (Staphylococcus aureus [6]; [10]) was 91%, the “local clinical cure rate” value (Staphylococcus aureus [6]; [10]) was 82% and the microbiological cure rate (Staphylococcus aureus [6]; [10]) was 45%.
